From patent publication US11690887B2, “Composition for ameliorating psoriasis symptoms containing extract of Dianthus superbus L” (KOREA INSTITUTE OF SCIENCE AND TECHNOLOGY, priority 2020, dated 2023)

Tests used:
[1] = system: psoriasis caused by imiquimod; test: Epithelial thickness of back skin by H&E staining in imiquimod-induced psoriasis mice; format: in vivo, Balb/c mice; details: after treatment for a week, skin application, compared to the IMQ group
Source text: (§1) 6-week-old male Balb/c mice (Kangwon Life Science, Korea) were purchased and acclimated for a week, and psoriasis was induced using 5% imiquimod (Donga ST, Korea). FIG. 1 is a schematic experimental scheme of an animal model. Anti-psoriatic efficacy was investigated using a total of 20 animal models including 5 animals per experimental group.
(§2) In order to determine the effect of the extract of Dianthus superbus L. on psoriasis caused by imiquimod, the experimental animals of Section 2-1 were used. The following four experimental groups were constructed and five animals were randomly assigned to each group:
(§3) The experiment was conducted by inducing psoriasis with IMQ cream and then performing daily application in the amount shown in FIG. 2 to the experimental group and the DEX group. FIG. 3 is an image showing the treatment group for 7 days compared to the psoriasis-induced model as the animal experimental model.
After treatment for a week, the back skin tissue was removed from each animal, and then a paraffin block was prepared. The paraffin block was cut to 5 μm to prepare a slide sample, and then the change in the thickness of the skin tissue was measured through H&E staining.

[2] = system: filaggrin, loricrin, keratin 1 and keratin 14; test: Biomarkers for epithelial tissue damage in back skin by immunofluorescence in imiquimod-induced psoriasis mice; format: in vivo, Balb/c mice; details: after treatment for a week, versus IMQ group
Source text: as §1, §2, §3
After treatment for a week, back skin tissue was removed from each animal and a paraffin block was then prepared. A paraffin block was cut to 5 μm to prepare a slide sample, and then the change in biomarkers for epithelial tissue damage due to psoriasis was measured through immunofluorescence.

## C[C@@H]1C[C@H]2[C@@H]3CCC4=CC(=O)C=C[C@]4(C)[C@@]3(F)[C@@H](O)C[C@]2(C)[C@@]1(O)C(=O)CO [DEX, dexamethasone]
[1]
  thickness of the epithelial layer: decreased thickness
[2]
  expression level of filaggrin: increased
  expression level of keratin 1: increased
  expression level of keratin 14: increased
  expression level of loricrin: increased
